From patent publication US8741834B2, “Dipeptoid prodrugs and the use thereof” (Bayer Intellectual Property GmbH, priority 2008, dated 2014)
Structures can show the parent of a compound that is named as a salt.

Key:
[1] = Oral pharmacokinetics in Wistar rats; format: in vivo; conditions: after oral administration
Method: (§1) On the day before administration of the substance, a catheter for obtaining blood is implanted in the jugular vein of the experimental animals (male Wistar rats, body weight 200-250 g) under Isofluran® anesthesia.
(§2) On the day of the experiment, a defined dose of the test substance is administered as solution into the stomach by gavage. Blood samples (8-12 time points) are taken through the catheter sequentially over the course of 24 h after administration of the substance. Plasma is obtained by centrifuging the samples in heparinized tubes. Acetonitrile is added to a defined plasma volume per time point to precipitate proteins. After centrifugation, test substance and, where appropriate, known cleavage products of the test substance in the supernatant are determined quantitatively using a suitable LC/MS-MS method.
The measured plasma concentrations are used to calculate pharmacokinetic parameters of the test substance and of the active ingredient compound (A) liberated therefrom, such as AUC, Cmax, T1/2 (half-life).

[2] = Determination of the solubility in 5% strength aqueous dextrose solution; format: physicochemical; conditions: saline or isotonic, thermodynamic from solid, room temperature
Method: The test substance is suspended in 5% strength aqueous dextrose solution. This suspension is shaken at room temperature for 24 h. After ultracentrifugation at 224 000 g for 30 min, the supernatant is diluted with DMSO and analysed by HPLC. A two-point calibration plot of the test compound in DMSO is used for quantification.
Agilent 1100 with DAD (G1315A), quat. Pump (G1311A), autosampler CTC HTS PAL, degasser (G1322A) and column thermostat (G1316A); column: Phenomenex Gemini C18, 5 μm, 50 mm×2 mm; temperature: 40° C.; eluent A: water/phosphoric acid pH 2, eluent B: acetonitrile; flow rate: 0.7 ml/min; gradient: 0-0.5 min 85% A, 15% B; ramp 0.5-3 min 10% A, 90% B; 3-3.5 min 10% A, 90% B; ramp 3.5-4 min 85% A, 15% B; 4-5 min 85% A, 15% B.
Agilent 1100 with DAD (G1315A), quat. pump (G1311A), autosampler CTC HTS PAL, degasser (G1322A) and column thermostat (G1316A); column: VDSoptilab Kromasil 100 C18, 3.5 μm, 60 mm×2.1 mm; temperature: 30° C.; eluent A: water+5 ml of perchloric acid/liter, eluent B: acetonitrile; flow rate: 0.75 ml/min; gradient: 0-0.5 min 98% A, 2% B; ramp 0.5-4.5 min 10% A, 90% B; 4.5-6 min 10% A, 90% B; ramp 6.5-6.7 min 98% A, 2% B; 6.7-7.5 min 98% A, 2% B.

[3] = Stability in buffer at various pH values; format: physicochemical
Method: 0.3 mg of the test substance is weighed into a 2 ml HPLC vial and 0.5 ml of acetonitrile or acetonitrile/DMSO (9:1) is added. The substance is dissolved by putting the sample vessel in an ultrasonic bath for about 10 seconds. Then 0.5 ml of the respective buffer solution is added, and the sample is again treated in the ultrasonic bath.
pH 2: 0.03 mol of citric acid, 0.061 mol of sodium chloride and 0.0082 mol of hydrochoric acid ad 1 liter of water;
pH 4: 1 liter of Millipore water is adjusted to pH 4.0 with 1 N hydrochloric acid;
pH 5: 0.096 mol of citric acid and 0.2 mol of sodium hydroxide ad 1 liter of water;
pH 6: 0.06 mol of citric acid and 0.16 mol of sodium hydroxide ad 1 liter of water;
pH 7.4: 90.0 g of sodium chloride, 13.61 g of potassium dihydrogen phosphate and 83.35 g of 1 N sodium hydroxide solution are made up to 1 liter with water; this solution is then further diluted 1:10 with Millipore water.
pH 8: 0.013 mol of borax and 0.021 mol of hydrochloric acid ad 1 liter of water.
5 μl portions of the test solution are analyzed by HPLC for their content of unchanged test substance, and of active substance (A) formed, every hour over a period of 24 hours at 37° C. The percentage areas of the appropriate peaks are used for quantification.
The ratios of the peak areas (F) at the respective time points in relation to the peak areas at the starting time are shown in Table 2 for representative exemplary embodiments: […]

[4] = test system: spontaneously hypertensive (SH rats); assay: Blood pressure and heart rate measurements on awake rats; format: in vivo, rat; conditions: per oral administration of 3 mg/kg
Method: Awake rats which are spontaneously hypertensive (SH rats) and which carry an internal transmitter capable of continual measurement both of blood pressure and also heart rate (telemetric capture of hemodynamic parameters) are administered test substances orally in various doses. Subsequently, blood pressure and heart rate, and their changes, are recorded over 24 hours.

[5] = i.v. pharmacokinetics in Wistar rats; format: in vivo; conditions: after i.v. administration
Method: as §1
as §2, with “tail vein using a Hamilton® glass syringe (bolus administration, duration of administration <10 s).” for “stomach by gavage.”
The measured plasma concentrations are used to calculate pharmacokinetic parameters of the test substance and of the active ingredient compound (A) liberated therefrom, such as AUC, Cmax, T1/2 (half-life) and CL (clearance).**

SMILES | detectability of the test substance in plasma [1] | solubility thermodynamic at 24 h [2] [µg/mL] | % test substance after 4 h [F(t = 4 h) × 100/F(t = 0 h)] ([3]; pH 4, 37° C.) [%] | % test substance after 24 h [F(t = 24 h) × 100/F(t = 0 h)] ([3]; pH 4, 37° C.) [%] | % test substance after 4 h [F(t = 4 h) × 100/F(t = 0 h)] ([3]; pH 7.4, 37° C.) [%] | % test substance after 24 h [F(t = 24 h) × 100/F(t = 0 h)] ([3]; pH 7.4, 37° C.) [%] | % test substance after 4 h [F(t = 4 h) × 100/F(t = 0 h)] ([3]; pH 5, 37° C.) [%] | % test substance after 24 h [F(t = 24 h) × 100/F(t = 0 h)] ([3]; pH 5, 37° C.) [%] | Heart rate reduction (maximum lowering of heart rate) [4] [%] | solubility at 24 h ([2]; 5% aqueous dextrose solution) [µg/mL] | % test substance after 4 h [F(t = 4 h) × 100/F(t = 0 h)] ([3]; pH 6, 37° C.) [%] | % test substance after 24 h [F(t = 24 h) × 100/F(t = 0 h)] ([3]; pH 6, 37° C.) [%] | detectability of the test substance in plasma [5]
CC[C@H](C)[C@H](N)C(=O)N[C@@H](C)C(=O)OC[C@H](COc1ccc(-c2c(C#N)c(N)nc(SCc3coc(-c4ccc(Cl)cc4)n3)c2C#N)cc1)OC(=O)[C@H](C)NC(=O)[C@@H](N)[C@@H](C)CC [Example 2, (2S)-3-{4-[2-Amino-6-({[2-(4-chlorophenyl)-1,3-oxazol-4-yl]methyl}sulfanyl)-3,5-dicyanopyridin-4-yl]phenoxy}propane-1,2-diyl (2S,2′S)-bis(2-{[(2S,3S)-2-amino-3-methylpentanoyl]amino}propanoate)dihydrochloride] | no longer detectable in plasma even at the first measurement point | 670 | 100 | 100 | 100 | 68 |  |  |  |  |  |  | 
C[C@H](NC(=O)CN)C(=O)OC[C@H](COc1ccc(-c2c(C#N)c(N)nc(SCc3coc(-c4ccc(Cl)cc4)n3)c2C#N)cc1)OC(=O)[C@H](C)NC(=O)CN [Example 7, (2S)-3-{4-[2-Amino-6-({[2-(4-chlorophenyl)-1,3-oxazol-4-yl]methyl}sulfanyl)-3,5-dicyanopyridin-4-yl]phenoxy}propane-1,2-diyl (2S,2′S)-bis{2-[(aminoacetyl)amino]propanoate}dihydrochloride] | no longer detectable in plasma even at the first measurement point |  | 100 | 100 | 0 | 0 | 98 | 83 |  |  |  |  | 
C[C@H](NC(=O)[C@@H]1CCCN1)C(=O)OC[C@H](COc1ccc(-c2c(C#N)c(N)nc(SCc3coc(-c4ccc(Cl)cc4)n3)c2C#N)cc1)OC(=O)[C@H](C)NC(=O)[C@@H]1CCCN1 [Example 8, (2S)-3-{4-[2-Amino-6-({[2-(4-chlorophenyl)-1,3-oxazol-4-yl]methyl}sulfanyl)-3,5-dicyanopyridin-4-yl]phenoxy}propane-1,2-diyl (2S,2′S)-bis(2-{[(2S)-pyrrolidin-2-ylcarbonyl]amino}propanoate)bis(trifluoroacetic acid) salt] | no longer detectable in plasma even at the first measurement point |  | 100 | 100 | 82 | 34 |  |  |  |  |  |  | 
N#Cc1c(N)nc(SCc2coc(-c3ccc(Cl)cc3)n2)c(C#N)c1-c1ccc(OC[C@H](O)CO)cc1 [Example 8A, 2-Amino-6-({[2-(4-chlorophenyl)-1,3-oxazol-4-yl]methyl}sulfanyl)-4-(4-{[(2R)-2,3-dihydroxypropyl]oxy}phenyl)pyridine-3,5-dicarbonitrile] |  |  |  |  |  |  |  |  | 10 | < 1.2 |  |  | 
C[C@H](NC(=O)CCN)C(=O)OC[C@H](COc1ccc(-c2c(C#N)c(N)nc(SCc3coc(-c4ccc(Cl)cc4)n3)c2C#N)cc1)OC(=O)[C@H](C)NC(=O)CCN [Example 32, (2S)-3-{4-[2-Amino-6-({[2-(4-chlorophenyl)-1,3-oxazol-4-yl]methyl}sulfanyl)-3,5-dicyanopyridin-4-yl]phenoxy}propane-1,2-diyl (2S,2′S)-bis{2-[(3-aminopropanoyl)amino]propanoate}dihydrochloride] |  |  | 100 | 100 | 96 | 81 | 100 | 100 | 10 |  | 99 | 98 | no longer detectable in plasma even at the first measurement point
C[C@H](N)C(=O)N[C@@H](C)C(=O)OC[C@H](COc1ccc(-c2c(C#N)c(N)nc(SCc3coc(-c4ccc(Cl)cc4)n3)c2C#N)cc1)OC(=O)[C@H](C)NC(=O)[C@H](C)N [Example 33, (2S)-3-{4-[2-Amino-6-({[2-(4-chlorophenyl)-1,3-oxazol-4-yl]methyl}sulfanyl)-3,5-dicyanopyridin-4-yl]phenoxy}propane-1,2-diyl(2S,2′S)-bis(2-{[(2S)-2-aminopropanoyl]amino}propanoate)dihydrochloride] | no longer detectable in plasma even at the first measurement point | 620 | 100 | 100 | 29 | 0 | 100 | 97 | 10 |  | 78 | 28 | no longer detectable in plasma even at the first measurement point
